Results on seven molecules are retold here after patent US5747235A, “Silver halide light sensitive emulsion layer having enhanced photographic sensitivity” (Eastman Kodak Company, priority 1996, dated 1998).

The nature of test [1]: Example 10: photographic sensitivity and fog, color format, blue sensitized emulsion T-2. To be noted: for Photographic Sensitivity SWR2B: control=100. On the procedure:
The hydroxybenzene, 2,4-disulfocatechcol (HB3) at a concentration of 13×10^-3 mole/mole Ag was added to the emulsion melt before the start of the chemical sensitization procedure. […] The fragmentable two-electron donors S-3, S-9, S-6, or S-8 were then added to the emulsion melt.
The melts were prepared for coating by adding additional water, deionized gelatin and coating surfactants. Coatings were prepared by combining the emulsion melts with a melt containing deionized gelatin and an aqueous dispersion of the cyan-forming color coupler CC-1 and coating the resulting mixture on acetate support. […] The structure of the color coupler CC-1 is given below: [drawing 120]
For photographic evaluation, each of the coating strips was exposed for 0.01 sec to a 3000K color temperature tungsten lamp filtered to give an effective color temperature of 5500K and further filtered through a Kodak Wratten filter number 2B, and a step wedge ranging in density from 0 to 4 density units in 0.20 density steps. This exposure gives light absorbed mainly by the blue sensitizing dye. The exposed film strips were developed for 31/4 minutes in Kodak C-41 color developer. SWR2B, relative sensitivity for this filtered exposure, was evaluated at a cyan density of 0.15 units above fog.

Test [2] in a line: Example 3: photographic speed and fog, 365 nm exposure, emulsion T-2. On the set-up: Fog: unit not given here. To be noted: for effect on dye desensitization: red dyed emulsion (D-II), 365 nm. On the procedure:
(§1) For photographic evaluation, each of the coating strips was exposed for 0.1 sec to a 365 nm emission line of a Hg lamp filtered through a Kodak Wratten filter number 18A and a step wedge ranging in density from 0 to 4 density units in 0.2 density steps. The exposed film strips were developed for 6 min in Kodak Rapid X-ray Developer (KRX). S365, relative sensitivity at 365 nm, was evaluated at a density of 0.2 units above fog.
This emulsion was precipitated using deionized gelatin. […] The chemically sensitized emulsion was then used to prepare coatings containing the fragmentable two-electron donor compounds. All of the experimental coating variations in Table III contained the hydroxybenzene 2,4-disulfocatechol (HB3) at a concentration of 13 mmole/ mole Ag, added to the melt before the addition of any further addenda. Where present, the blue sensitizing dye D-I or the red sensitizing dye D-II were added from methanol solution to the emulsion at 40° C. after the chemical sensitization and disulfocatechol addition.

The nature of test [3]: Example 4: photographic speed and fog, 365 nm exposure, blue dyed emulsion T-2. Also noted: Fog: unit not given here. To be noted: for Fog / S365: dye I 0.91 x10^-3; for S365: dyed control=100; for fog change: Table IV. On the procedure:
as §1
(§2) An AgBrI tabular silver halide emulsion (Emulsion T-2) was prepared containing 4.05% total I distributed such that the central portion of the emulsion grains contained 1.5% I and the perimeter area contained substantially higher I, as described by Chang et. al., U.S. Pat. No. 5,314,793. […] This emulsion was precipitated using deionized gelatin. The emulsion was sulfur sensitized by adding 8.5×10^-6 mole 1,3-dicarboxymethyl-1,3-dimethyl-2-thiourea /mole Ag at 40° C.; the temperature was then raised to 60° C. at a rate of 5° C./3 min and the emulsions held for 20 min before cooling to 40° C. The chemically sensitized emulsion was then used to prepare coatings containing the fragmentable two-electron donor compounds. All of the experimental coating variations in Table III contained the hydroxybenzene 2,4-disulfocatechol (HB3) at a concentration of 13 mmole/ mole Ag, added to the melt before the addition of any further addenda. Where present, the blue sensitizing dye D-I or the red sensitizing dye D-II were added from methanol solution to the emulsion at 40° C. after the chemical sensitization and disulfocatechol addition. The fragmentable two-electron donor compounds were added to the emulsion at 40° C. and the coatings were prepared and tested as described in Example 1, except that the additional gelatin used to prepare the coatings described in Table III was deionized gelatin.
The chemically sensitized AgBrI tabular emulsion T-2 as described in Example 3 was used to prepare the experimental coating variations listed in Table IV, comparing various structurally related fragmentable two-electron donating compounds varying in first oxidation potential E1. The blue sensitizing dye D-I was added from methanol solution to the emulsion at 40° C. after the chemical sensitization. The fragmentable two-electron donating compounds were then added to the emulsion and coatings prepared and tested as described in Example 3.

A short description of test [4]: Example 9: photographic speed and fog, 365 nm exposure, red dyed emulsion T-2. To be noted: for Fog / S365: dye II 0.86 x10^-3; for S365: undyed control=100, dyed control 62; for 365 nm sensitivity of dyed emulsion: dye D-II. On the procedure:
as §1, §2
The sulfur sensitized AgBrI tabular emulsion T-2 as described in Example 3 was used to prepare coatings of the fragmentable two-electron donors S-15, S-14, S-13, and S-11, as described in Table IX. All of the experimental coating variations in Table IX contained the hydroxybenzene, 2,4-disulfocatechcol (HB3) at a concentration of 13 mmole/mole Ag, added to the melt before any further addenda. Where present, the red sensitizing dye D-II was added from methanol solution to the emulsion at 40° C. after the chemical sensitization and disulfocatechol addition. The fragmentable two-electron donor compounds were then added to the emulsion and coatings prepared and tested as described in Example I, except that the additional gelatin used to prepare the coatings described in Table IX was deionized gelatin.

The mark [5] stands for this setting: 0.0022 x10^-3 mole/mole Ag, dye II 0.86 x10^-3.
The mark [6] stands for this setting: 0.0022 x10^-3 mole/mole Ag, dye II 0.86 x10^-3, dyed control 68.
The mark [7] stands for this setting: 0.007 x10^-3 mole/mole Ag, dye II 0.86 x10^-3.
[8] abbreviates: 0.022 x10^-3 mole/mole Ag, dye I 0.91 x10^-3.
Setting [9] is: 0.022 x10^-3 mole/mole Ag, dye I 0.91 x10^-3, dyed control 105.
Setting [10] is: 0.007 x10^-3 mole/mole Ag, dye II 0.86 x10^-3, dyed control 68.
Where [11] appears, read: 0.07 x10^-3 mole/mole Ag, dye I 0.91 x10^-3.
[12] abbreviates: 0.07 x10^-3 mole/mole Ag, dye I 0.91 x10^-3, dyed control 105.
Where [13] appears, read: 0.07 x10^-3 mole/mole Ag, no dye.
Where [14] appears, read: 0.07 x10^-3 mole/mole Ag, no dye, control=100.

Molecules are shown by their SMILES. Where a name gives a salt, the structure may show the parent alone.

As to `CCSCCN(c1ccc(C)cc1)[C@@H](C)C(=O)[O-].[Na+]` [Compound S-3, N-(4-Methylphenyl)-N-(2-ethylthio-ethyl)alanine sodium salt], the Fog in test [1] (0.022 x10^-3 mol/mol Ag) is 0.14; in test [1] (0.07 x10^-3 mol/mol Ag), 0.19; in test [2] (setting [5]), 0.28; in test [2] (setting [7]), 0.75; in test [2] (setting [8]), 0.16; in test [2] (0.022 x10^-3 mole/mole Ag, no dye) it was 0.13. Moreover, the results for the “Photographic Sensitivity SWR2B” value in test [1] (0.022 x10^-3 mol/mol Ag) and in test [1] (0.07 x10^-3 mol/mol Ag) were 97 and 110, respectively. Further, the S365 is reported as 120 in test [2] (setting [6]); 132 in test [2] (setting [9]); 151 in test [2] (0.022 x10^-3 mole/mole Ag, no dye, control=100). The “effect on dye desensitization” value in test [2] was “effective in ameliorating dye desensitization”.
Take `CCSCCN(c1ccc(C)cc1)C(CC(=O)O)C(=O)O` (stereo not shown) [Compound S-8]: the Fog in test [1] (0.022 x10^-3 mol/mol Ag) worked out at 0.14; in test [1] (0.07 x10^-3 mol/mol Ag) it was 0.23; in test [2] (setting [5]), 0.11; in test [2] (setting [7]) it was 0.15; in test [2] (setting [8]), 0.07; in test [2] (setting [11]), 0.12. Moreover, in test [2] (setting [13]), the Fog is recorded as 0.13. In addition, the “Photographic Sensitivity SWR2B” value is reported as 107 in test [1] (0.022 x10^-3 mol/mol Ag) and 110 in test [1] (0.07 x10^-3 mol/mol Ag). Also, the S365 was determined as 97 in test [2] (setting [6]); 112 in test [2] (setting [10]); 118 in test [2] (setting [9]); 120 in test [2] (setting [12]); 162 in test [2] (setting [14]). The “effect on dye desensitization” value in test [2] is reported as “effective in ameliorating dye desensitization”.
As for `CCSCCN(c1ccccc1)C(C)C(=O)O` (stereo not shown) [Compound S-9, N-(Phenyl)-N-(2-thioethyl-ethyl)alanine sodium salt], the Fog in test [3] (0.22 x10^-3 mole/mole Ag) is 0.21; in test [3] (0.44 x10^-3 mole/mole Ag), 0.41; in test [3] (0.88 x10^-3 mole/mole Ag), 0.63; in test [1] (0.022 x10^-3 mol/mol Ag), 0.16; in test [1] (0.07 x10^-3 mol/mol Ag) it was 0.19; in test [2] (setting [5]), 0.24. In addition, the Fog in test [2] (setting [7]) is reported as 0.44; in test [2] (setting [8]), 0.08; in test [2] (setting [11]), 0.13; in test [2] (setting [13]) it was 0.13. Also, the S365 in test [3] (0.22 x10^-3 mole/mole Ag) is 129; in test [3] (0.44 x10^-3 mole/mole Ag), 102; in test [2] (setting [6]), 115; in test [2] (setting [10]) it was 107; in test [2] (setting [9]) it was 159; in test [2] (setting [12]) it was 162. The S365 in test [2] (setting [14]) was 166. Besides, the “fog change” value in test [3] is recorded as “modest increases in fog”. The “Photographic Sensitivity SWR2B” value stood at 162 in test [1] (0.022 x10^-3 mol/mol Ag) and 182 in test [1] (0.07 x10^-3 mol/mol Ag). The “effect on dye desensitization” value in test [2] was “effective in ameliorating dye desensitization”.
As to `CCSCCN(c1ccc(C(=O)O)cc1)C(C)C(=O)O` (stereo not shown) [Compound S-11], the Fog was determined as 0.12 in test [4] (0.007 x10^-3 mol/mol Ag); 0.13 in test [4] (0.022 x10^-3 mol/mol Ag); 0.05 in test [3] (0.22 x10^-3 mole/mole Ag); 0.06 in test [3] (0.44 x10^-3 mole/mole Ag); 0.07 in test [3] (0.88 x10^-3 mole/mole Ag). Also, the S365 was 87 in test [4] (0.007 x10^-3 mol/mol Ag); 100 in test [4] (0.022 x10^-3 mol/mol Ag); 145 in test [3] (0.22 x10^-3 mole/mole Ag); 145 in test [3] (0.44 x10^-3 mole/mole Ag); 145 in test [3] (0.88 x10^-3 mole/mole Ag). Moreover, the “365 nm sensitivity of dyed emulsion” value in test [4] is recorded as “restored to that of the undyed emulsion”.
Consider `CCSCCN(c1ccc(Cl)cc1)C(C)C(=O)O` (stereo not shown) [Compound S-12, N-(4-Chlorophenyl)-N-(2-thioethyl-ethyl)alanine sodium salt], for which the Fog in test [3] (0.22 x10^-3 mole/mole Ag) was determined as 0.18; in test [3] (0.44 x10^-3 mole/mole Ag), 0.21; in test [3] (0.88 x10^-3 mole/mole Ag) it was 0.29. Further, the S365 is listed as 145 in test [3] (0.22 x10^-3 mole/mole Ag), 141 in test [3] (0.44 x10^-3 mole/mole Ag) and 138 in test [3] (0.88 x10^-3 mole/mole Ag). For the same molecule, the “fog change” value in test [3] is “modest increases in fog”.
Take `CCSCCN(c1cccc(C(N)=O)c1)C(C)C(=O)O` (stereo not shown) [Compound S-13]: the Fog was 0.13 in test [4] (0.007 x10^-3 mol/mol Ag); 0.20 in test [4] (0.022 x10^-3 mol/mol Ag); 0.10 in test [3] (0.22 x10^-3 mole/mole Ag); 0.13 in test [3] (0.44 x10^-3 mole/mole Ag); 0.14 in test [3] (0.88 x10^-3 mole/mole Ag). In addition, the S365 in test [4] (0.007 x10^-3 mol/mol Ag) is recorded as 95; in test [4] (0.022 x10^-3 mol/mol Ag) it was 102; in test [3] (0.22 x10^-3 mole/mole Ag), 151; in test [3] (0.44 x10^-3 mole/mole Ag), 151; in test [3] (0.88 x10^-3 mole/mole Ag), 166. Further, the “365 nm sensitivity of dyed emulsion” value in test [4] was “restored to that of the undyed emulsion”.
For the molecule `CCSCCN(c1ccccc1)C(CC(=O)O)C(=O)O` (stereo not shown) [Compound S-14], the results for the Fog in test [4] (0.007 x10^-3 mol/mol Ag) and in test [4] (0.022 x10^-3 mol/mol Ag) were 0.11 and 0.14, respectively. Also, the S365 is reported as 89 in test [4] (0.007 x10^-3 mol/mol Ag) and 97 in test [4] (0.022 x10^-3 mol/mol Ag). Moreover, in test [4], the “365 nm sensitivity of dyed emulsion” value is on record as “restored to that of the undyed emulsion”.
